In US6916798B2, “Inhibitors of GSK-3 and uses thereof” (Vertex Pharmaceuticals Incorporated, priority 2001, dated 2005) one finds Ki and inhibition data, which are given here for 18 compounds.

Some results are limits rather than exact numbers.

Common to all, as to assay type: biochemical
The target of assay [1] is T1, GSK-3β (AA 1-420) (Homo sapiens, UniProt P49841).
T1 construct: GSK-3β (AA 1-420)
Briefly: Ki determination for the inhibition of GSK-3, standard coupled enzyme system. The following applies: 20 μM ATP, 300 μM peptide, 20 nM GSK-3β, 30° C.; read-out: Ki values for GSK-3. Here is the method: Final substrate concentrations in the assay were 20 μM ATP (Sigma Chemicals, St Louis, Mo.) and 300 μM peptide (HSSPHQS(PO3H2)EDEEE, American Peptide, Sunnyvale, Calif.). Reactions were carried out at 30° C. and 20 nM GSK-3β. Final concentrations of the components of the coupled enzyme system were 2.5 mM phosphoenolpyruvate, 300 μM NADH, 30 μg/ml pyruvate kinase and 10 μg/ml lactate dehydrogenase.
An assay stock buffer solution was prepared containing all of the reagents listed above with the exception of ATP and the test compound of interest. The assay stock buffer solution (175 μl) was incubated in a 96 well plate with 5 μl of the test compound of interest at final concentrations spanning 0.002 μM to 30 μM at 30 ° C. for 10 min. […] The reaction was initiated by the addition of 20 μl of ATP (final concentration 20 μM). Rates of reaction were obtained using a Molecular Devices Spectramax plate reader (Sunnyvale, Calif.) over 10 min at 30° C. The Ki values were determined from the rate data as a function of inhibitor concentration.

Assay [2] deals with T2, CDK-2/Cyclin A (Homo sapiens, UniProt P24941). Briefly: Inhibition of CDK-2, standard coupled enzyme assay. The conditions noted are these: for inhibition at 2 µM: 2 μM compound; for inhibition at 10 µM: read-out: CDK-2 % inhibition @ 10 μM, 10 μM compound.
Assay [3] deals with T3, Aurora-2 (Homo sapiens, UniProt O14965).
T3 sequence (O14965 1-403): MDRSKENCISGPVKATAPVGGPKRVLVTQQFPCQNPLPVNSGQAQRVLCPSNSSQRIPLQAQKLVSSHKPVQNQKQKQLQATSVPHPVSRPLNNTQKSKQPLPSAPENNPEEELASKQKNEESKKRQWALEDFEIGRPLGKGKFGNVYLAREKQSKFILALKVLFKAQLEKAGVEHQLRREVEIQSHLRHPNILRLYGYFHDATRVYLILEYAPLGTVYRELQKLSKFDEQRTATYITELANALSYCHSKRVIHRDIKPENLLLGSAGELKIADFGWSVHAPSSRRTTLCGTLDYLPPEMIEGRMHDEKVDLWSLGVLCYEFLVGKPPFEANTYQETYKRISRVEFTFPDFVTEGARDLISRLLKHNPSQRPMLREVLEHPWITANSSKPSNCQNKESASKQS
Kind of assay: Ki determination for the inhibition of Aurora-2, standard coupled enzyme assay. The conditions noted are these: 70 nM Aurora-2, 800 μM peptide LRRASLG, 30° C. Here is the method: Compounds were screened in the following manner for their ability to inhibit Aurora-2 using a standard coupled enzyme assay (Fox et al. (1998) Protein Sci. 7, 2249).
(§1) To an assay stock buffer solution containing 0.1M HEPES 7.5, 10 mM MgCl2, 1 mM DTT, 25 mM NaCl, 2.5 mM phosphoenolpyruvate, […], 30 mg/ml pyruvate kinase, 10 mg/ml lactate dehydrogenase, 40 mM ATP, and 800 μM peptide (LRRASLG, American Peptide, Sunnyvale, Calif.) was added a DMSO solution of a compound of the present invention to a final concentration of 30 μM. The resulting mixture was incubated at 30° C. for 10 min. The reaction was initiated by the addition of 10 μL of Aurora-2 stock solution to give a final concentration of 70 nM in the assay. The rates of reaction were obtained by monitoring absorbance at 340 nm over a 5 minute read time at 30° C. using a BioRad Ultramark plate reader (Hercules, Calif.). The Ki values were determined from the rate data as a function of inhibitor concentration.

The target of assay [4] is T2, CDK-2/Cyclin A. Briefly: Inhibition of CDK-2, standard coupled enzyme assay. The conditions noted are these: 25 nM CDK-2/Cyclin A, 100 μM peptide, 30° C. Here is the method:
Compounds were screened in the following manner for their ability to inhibit CDK-2 using a standard coupled enzyme assay (Fox et al (1998) Protein Sci 7, 2249).
as §1, with “[…], […]” for “dehydrogenase, 40”, “and 100” for “and 800”, “peptide ([…],” for “peptide (LRRASLG,”, “of CDK-2/Cyclin A” for “of Aurora-2”, “of 25” for “of 70”, “a 5-minute” for “a 5 minute”

T1 sequence (P49841 whole entry, the tested form may be a part): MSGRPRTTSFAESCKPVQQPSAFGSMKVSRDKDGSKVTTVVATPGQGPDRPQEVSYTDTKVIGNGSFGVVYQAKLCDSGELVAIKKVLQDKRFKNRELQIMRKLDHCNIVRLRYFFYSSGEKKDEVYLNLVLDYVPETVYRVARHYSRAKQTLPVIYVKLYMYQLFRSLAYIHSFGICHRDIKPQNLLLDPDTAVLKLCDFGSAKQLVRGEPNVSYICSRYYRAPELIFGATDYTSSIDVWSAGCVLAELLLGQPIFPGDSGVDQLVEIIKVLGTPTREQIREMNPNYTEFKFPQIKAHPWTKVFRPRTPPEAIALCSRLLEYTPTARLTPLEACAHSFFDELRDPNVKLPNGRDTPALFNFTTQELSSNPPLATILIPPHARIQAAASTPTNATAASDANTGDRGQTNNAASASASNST

In the case of `COc1ccc(C2=NNC(=O)C2=NNc2ccc(Cl)cc2)cc1OC` [Compound 44], the Ki in assay [1] was less than 0.1 µM. In assay [2], the inhibition at 2 µM is 87% and the inhibition at 10 µM came out at 94%.
With `COc1ccc(NN=C2C(=O)NN=C2c2ccc(OC)cc2)cc1` [Compound 46], the figures for the Ki in assay [1] and in assay [3] were less than 0.1 µM and 0.1 to 1 µM, respectively. For the same compound, in assay [2], the inhibition at 2 µM worked out at 82%. The inhibition at 10 µM in assay [2] came out at 95%.
For `COc1ccc(C2=NNC(=O)C2=CNc2ccc(Oc3ccccc3)cc2)cc1` [Compound 91], the Ki was 0.1 to 1 µM in assay [1] and 1 to 20 µM in assay [4].
For `COc1ccc(C2=NNC(=O)C2=CNc2cccc(OCc3ccccc3)c2)cc1OC` [Compound 92, 4-[(3-Benzyloxy-phenylamino)-methylene]-5-(3,4-dimethoxy-phenyl)-2,4-dihydro-pyrazol-3-one] the same measures were 0.1 to 1 µM and 1 to 20 µM.
Taken in the same sequence, the figures for `COc1ccc(C2=NNC(=O)C2=CNc2cccc(C(=O)c3ccccc3)c2)cc1` [Compound 93] were 0.1 to 1 µM and 1 to 20 µM.
Taken in the same sequence, the figures for `COc1ccc(C2=NNC(=O)C2=CNc2cccc(S(N)(=O)=O)c2)cc1OC` [Compound 95, 3-{[3-(3,4-Dimethoxy-phenyl)-5-oxo-1,5-dihydro-pyrazol-4-ylidenemethyl]-amino}-benzenesulfonamide] were 0.1 to 1 µM and 1 to 20 µM.
For `COc1ccc(C2=NNC(=O)C2=CNc2ccc3c(c2)NCC3)cc1` [Compound 96], the results for the inhibitory constant (Ki) in assay [1] and in assay [4] were 0.1 to 1 µM and 1 to 20 µM, respectively.
Taken in the same sequence, the figures for `COc1ccc(C2=NNC(=O)C2=CNc2ccc3c(c2)N(C(C)=O)CC3)cc1` [Compound 97] were less than 0.1 µM and 1 to 20 µM.
Consider `COc1ccc(C2=NNC(=O)C2=CNc2ccc(OC)c(O)c2)cc1` [Compound 98], for which the Ki in assay [1] was less than 0.1 µM; in assay [4] it was 0.1 to 1 µM.
As for `COc1ccc(C2=NNC(=O)C2=NNc2ccc(OC)c(-c3cccnc3)c2)cc1OC` [Compound 106, 5-(3,4-Dimethoxy-phenyl)-4-[(4-methoxy-3-pyridin-3-yl-phenyl)-hydrazono]-2,4-dihydro-pyrazol-3-one], the figures for the Ki in assay [1] and in assay [4] were less than 0.1 µM and 1 to 20 µM, respectively.
As to `CCOc1ccc(C2=NNC(=O)C2=NNc2ccc(N(CC)CC)cc2)cc1OCC` [Compound 114, 5-(3,4-Diethoxy-phenyl)-4-[(4-diethylamino-phenyl)-hydrazono]-2,4-dihydro-pyrazol-3-one], the figures for the Ki in assay [3] and in assay [4] were less than 0.1 µM and 1 to 20 µM, respectively.
For `CCOc1ccc(C2=NNC(=O)C2=NNc2ccc(N(CC)CCO)cc2)cc1OCC` [Compound 115, 5-(3,4-Diethoxy-phenyl)-4-({4-[ethyl-(2-hydroxy-ethyl)-amino]-phenyl}-hydrazono)-2,4-dihydro-pyrazol-3-one] the same measures were less than 0.1 µM and 1 to 20 µM.
For `CCOc1ccc(C2=NNC(=O)C2=NNc2ccc(N3CCOCC3)cc2)cc1OCC` [Compound 116, 5-(3,4-Diethoxy-phenyl)-4-[(4-morpholin-4-yl-phenyl)-hydrazono]-2,4-dihydro-pyrazol-3-one] the same measures were less than 0.1 µM and 1 to 20 µM.
For the compound `CCN(CC)c1ccc(NN=C2C(=O)NN=C2c2ccc(OCc3ccccc3)c(OC)c2)cc1` [Compound 117, 5-(4-Benzyloxy-3-methoxy-phenyl)-4-[(4-diethylamino-phenyl)-hydrazono]-2,4-dihydro-pyrazol-3-one], the results for the Ki in assay [3] and in assay [4] were 0.1 to 1 µM and 1 to 20 µM, respectively.
For `CCN(CCO)c1ccc(NN=C2C(=O)NN=C2c2ccc(OCc3ccccc3)c(OC)c2)cc1` [Compound 118, 5-(4-Benzyloxy-3-methoxy-phenyl)-4-({4-[ethyl-(2-hydroxy-ethyl)-amino]-phenyl}-hydrazono)-2,4-dihydro-pyrazol-3-one] the same measures were less than 0.1 µM and 1 to 20 µM.
For `COc1cc(C2=NNC(=O)C2=NNc2ccc(N3CCOCC3)cc2)ccc1OCc1ccccc1` [Compound 119, 5-(4-Benzyloxy-3-methoxy-phenyl)-4-[(4-morpholin-4-yl-phenyl)-hydrazono]-2,4-dihydro-pyrazol-3-one] the same measures were less than 0.1 µM and 1 to 20 µM.
With `COc1ccc(C2=NNC(=O)C2=NNc2ccc(OCCCN(C)CCO)c(-c3ccccc3)c2)cc1OC` [Compound 120, 5-(3,4-dimethoxy-phenyl)-4-[(6-{3-[(2-hydroxy-ethyl)-methyl-amino]-propoxy}-biphenyl-3-yl)-hydrazono]-2,4-dihydro-pyrazol-3-one], the Ki in assay [1] was less than 0.1 µM; in assay [4], 1 to 20 µM.
For `COc1ccc(C2=NNC(=O)C2=NNc2ccc(OCCCN(C)C)c(-c3ccccc3)c2)cc1OC` [Compound 121, 5-(3,4-Dimethoxy-phenyl)-4-{[6-(3-dimethylamino-propoxy)-biphenyl-3-yl]-hydrazono}-2,4-dihydro-pyrazol-3-one] the same measures were less than 0.1 µM and 1 to 20 µM.

The Ki is a measure of affinity in units of concentration, obtained from inhibition or displacement. As usually defined, the inhibition is the drop in the measured response relative to a control, in per cent.
